Experimental data: patent publication US6893821B2, “Agents that modulate DNA-PK activity and methods of use thereof” (The Regents of the University of California, priority 2000, dated 2005)

What was measured:
DNA-PK = target: T1, DNA-PK (Homo sapiens, UniProt P12956+P13010+P78527); assay: In vitro DNA-PK phosphorylation assay (affinity-purified DNA-PK, GST-p53 (1-70) substrate); format: biochemical; details: 30° C., 30 minutes; ps-ss ODNs 0-1, po-ISS-ODN 20-100, po-ds-ISS-ODN 0-10, genomic DNAs 1-5 ng/reaction
T1 construct: purchased Promega
Protocol: The in vitro DNA-PK phosphorylation assay was performed according to Hammarsten et al. (2000), supra, with modification. Briefly, affinity-purified DNA-PK (Promega, Mo.) was incubated with various DNA preparations (described below), 0.5 μg of GST-p53 (1-70) and 3.3 μCi of γ-^32p-ATP in a 20 μl reaction buffer (10 mM Tris-Cl, 5 mM MgCl2, 0.3 mM EDTA and 10 μM ATP) at 30° C. for 30 minutes. The reaction was stopped by addition of 4× loading buffer. The samples were boiled, loaded on 9% SDS-PAGE, transferred onto a PVDF membrane and visualized by autoradiography.
(§1) The ODNs (ps-ss) used include an ISS-ODN with an active CpG motif (AACGTT), a methylated ISS-ODN at the ^5C of the CpG dinucleotide (AA*CGTT) and various control ODNs. These ODNs were incubated at concentrations of 0, 0.1, 0.3, or 1 ng/reaction. The po-ISS-ODN was incubated at concentration of 20, 50 or 100 ng/reaction. The po-ds-ISS-ODN was incubated at concentration of 0, 0.5, 1, 2, 5 or 10 ng/reaction. The bacterial or calf thymus DNAs were each incubated at concentration of 1, 2 or 5 ng/reaction. Electrophoretic gel mobility shift assay (EMSA) was performed as previously described. Chu et al. (1999) Immunity 11:721-731; and Li et al., 1999, supra). In vitro IKK kinase assays were performed using purified IKK derived from Sf9 insect cell lysates as was previously described. Zandi et al. (1998) Science 281:1360-1363.

IκB kinase (IKK) complex = assay: IKK kinase assay on IKK complex immunoprecipitated from treated BMDM (IκBα N-terminus substrate); format: cell-based, mice
Protocol: Kinase assays and immunoblotting were performed according to Li et al. ((1999) J. Exp. Med. 189:1839-1845). Briefly, BMDM were treated with ISS-ODN (5 μg/ml), M-ODN (5 μg/ml) on ps and po backbones as indicated, LPS-free bacterial DNA or methylated bacterial DNA (5 μg/ml), LPS-free calf thymus DNA (5 μg/ml), LPS (10 μg/ml) or TNFα (10 ng/ml) for the indicated time periods. Cell lysates were prepared and normalized by immunoblotting (IB) with anti-IKKα polyclonal antibodies (Santa Cruz, Santa Cruz Biotech Inc., Calif.), anti-IKKβ polyclonal antbodies (Santa Cruz) or anti-DNA-PKcs monoclonal antibodies (NeoMarker, Calif.). IκB kinase (IKK) complex or DNA-PK complex from 100 μg of the lysates were immunoprecipitated by anti-IKKα or by anti-DNA-PKcs antibodies. The kinase activities (KA) were determined by a kinase assay using the N-terminus of IκBα (for IKK) or the N-terminus of p53 (for DNA-PK) as a substrate as previously described. Wang et al. (1992) Proc. Natl. Acad. Sci. USA 89:4231-4235; Li et al.(1999), supra; and Hammarsten et al. (2000) J. Biol. Chem. 275:1541-1545.

IKKα = assay: In vitro IKK kinase assay: recombinant IKKα incubated with DNA-PK with ISS-ODN; format: biochemical; details: IKKα incubated with DNA-PK in the presence of ISS-ODN; not beyond DNA-PK alone
Protocol: as §1
To explore a role of ISS-activated DNA-PK in IKK activation we tested whether affinity-purified DNA-PK can directly activate recombinant IKKα or IKKβ purified from Sf9 cells (Zandi et al., 1998, supra). […] Furthermore, although DNA-PKcs phosphorylated IκBα that activity was considerably lower than that achieved by IKKβ plus DNA-PK. […] Recombinant IKKβ was pre-incubated with DNA-PK in the presence or absence of ISS-ODN followed by immunoprecipitation of IKKβ and IκB kinase activity was measured. […] We next determined whether DNA-PK phosphorylates IKKβ.

IKKβ = assay: In vitro IKK kinase assay: recombinant IKKβ incubated with DNA-PK with or without ISS-ODN; format: biochemical
Protocol: as §1
To explore a role of ISS-activated DNA-PK in IKK activation we tested whether affinity-purified DNA-PK can directly activate recombinant IKKα or IKKβ purified from Sf9 cells (Zandi et al., 1998, supra). […] Furthermore, although DNA-PKcs phosphorylated IκBα that activity was considerably lower than that achieved by IKKβ plus DNA-PK. […] To further confirm the activation of IKKβ by DNA-PK, we performed a coupled-kinase assay. Recombinant IKKβ was pre-incubated with DNA-PK in the presence or absence of ISS-ODN followed by immunoprecipitation of IKKβ and IκB kinase activity was measured. […] We next determined whether DNA-PK phosphorylates IKKβ.

Q: Which results are given for 5′-TGACTGTGAACGTTCGAGATGA-3′ [ISS-ODN]?
A: DNA-PK activity in vitro (phosphorylation of the N-terminal portion of p53) (DNA-PK): stimulated DNA-PK activity; IKK activation, wt vs ATM-deficient BMDM (IκB kinase (IKK) complex; ATM-deficient BMDM): no differences were observed; IKK activation (IκB kinase (IKK) complex; DNA-PKcs-/- BMDM as compared to wt): little increase in IKK activity; IKK activation (IκB kinase (IKK) complex; IKKβ-/- Tnfr-/- BMDM (absence of IKKβ)): prevented; IKK activation (IκB kinase (IKK) complex; wt BMDM): robust IKK activation; duration of IKK activation (IκB kinase (IKK) complex; wt BMDM): about 4 hrs; time of maximal IKK activation post incubation (IκB kinase (IKK) complex; wt BMDM): 30 min; ISS-ODN concentration of optimal IKK activation (IκB kinase (IKK) complex; wt BMDM (FIG. 5B)): 0.65 µg/mL; IκB kinase activity of IKKα (IKKα): Only a small enhancement; phosphorylation of catalytically inactive IKKβ (KA) by DNA-PK (IKKβ; incubated with ISS-ODN): phosphorylated; activation of IKKβ by DNA-PK, coupled-kinase assay (IKKβ; pre-incubation with DNA-PK with or without ISS-ODN, then immunoprecipitation of IKKβ): only activates IKKβ in the presence of ISS-ODN; kinase activity of IKKβ measured by IκB phosphorylation (IKKβ; recombinant IKKβ incubated with DNA-PK in the presence of ISS-ODN): further increased
